In publication PMC3821218 (Structure (London, England : 1993), 2013):
Marks after values point to notes of the source that are not given here.

How the values were obtained:
RR468 [1] = target: T1, RR468 (Thermotoga maritima, UniProt Q9WYT9, V13P/L14I/I17M/N21V); conditions: free RR468*; phosphomimetic; NaF/BeSO4/MgCl2, pH 4.6
RR468 [2] = target: T1, RR468; experiment: autophosphorylation from […]acetyl phosphate; format: biochemical; conditions: labelled compound; 5 mM MgCl2, pH 8.0, room temperature, 1 hour
crystal structure = target: the molecule itself; experiment: crystal structure

[F][Be-]([F])[F] [BeF3^−]
X-ray crystal structure, 1.80 Å (RR468 [1]): the free forms of HK853* (HKf*) bound to ADP and RR468* (RRf*) bound to BeF3^−

CC(=O)OP(=O)(O)O [acetyl-phosphate]
autophosphorylation from [32P]acetyl phosphate (RR468 [2]): RR468* autophosphorylates more poorly than RR468 using this method

B1: HK853, wild type, cytoplasmic portion (enzyme, Thermotoga maritima)
chain: VENVTESKELERLKRIDRMKTEFIANISHELRTPLTAIKAYAETIYNSLGELDLSTLKEFLEVIIDQSNHLENLLNELLDFSRLERKSLQINREKVDLCDLVESAVNAIKEFASSHNVNVLFESNVPCPVEAYIDPTRIRQVLLNLLNNGVKYSKKDAPDKYVKVILDEKDGGVLIIVEDNGIGIPDHAKDRIFEQFYRVDSSLTYEVPGTGLGLAITKEIVELHGGRIWVESEVGKGSRFFVWIPKDRAGEDNRQDN
stoichiometry N (crystal structure): 2
